For assay [1], the system named is LoVo cells. As to the kind of experiment: Measurement of intracellular ROS levels (DCFH-DA, flow cytometry). The format is cell-based, human. The following applies: 5 µM. The procedure:
LoVo cells (1 × 10^5 cells/well) were seeded into a 6-well plate and incubated at 37 °C and 5% CO2 atmosphere overnight. After incubation, the seeded cells were treated with 1 mL of 10 µM DCFDA in culturing media for 1 h. Upon completion, the cells were washed twice with PBS followed by treatments with 5 µM of selected compounds for 24, 48 and 72 h. Then, the treated cells were harvested, washed and re-suspended in PBS followed by flow-cytometric analysis at the FITC channel.
(In flow cytometry, cells or beads pass a laser one at a time.)

Assay [2] deals with cleaved PARP. As to the kind of experiment: Western blot, cleaved PARP. The format is cell-based, human. The following applies: 5 µM, LoVo cells, after 24 h. The procedure: (§1) Lovo cells (1.5 × 10^4 cells/cm^2) were seeded in a T75 flask and incubated at 37 °C and 5% CO2 atmosphere overnight. The seeded cells were then treated with selected compounds at 5 µM of 2e for 24 h, 48 h, and 72 h. After treatment, the cells were harvested and lysed with phenylmethanesulfonyl fluoride (PMSF)-containing cell lysis buffer. The lysates were then centrifuged at 13,300× g for 15 min and the supernatant was collected. Protein concentrations of all samples were determined using a BCA assay kit (Thermo Scientific Inc., Waltham, MA, USA). Equal amounts of protein were electrophoresed in 12% and 20% SDS-polyacrylamide gel (SDS-PAGE), and electro-transferred onto a 0.22-μm polyvinyldene difluoride membrane. Each membrane was blocked with 5% (w/v) skim milk at room temperature for 1 h followed by overnight incubation with specific primary antibodies (1:1000) at 4 °C. Subsequently, the respective membrane was washed thrice with TBST (0.05% (v/v) of tween-20) followed by 1 h incubation with secondary antibody (1:10,000). Upon completion, the membrane was washed thrice with 1X Tris-Buffered Saline, 0.1% Tween® 20 Detergent (TBST) and the immune reactive bands were developed using SuperSignal West Dura Extended Duration Substrate (Thermo Scientific Inc., Waltham, MA, USA). […]
(In western blotting, separated proteins are transferred to a membrane and probed.)

Assay [3] concerns cleaved caspase-7. As to the kind of experiment: Western blot, cleaved caspase-7. The class given is cell-based, human. The following applies: 5 µM, LoVo cells, after 24 h. The procedure:
as §1

The subject of assay [4] is T84 cells. As to the kind of experiment: MTT cytotoxicity assay, T84 cells. The class given is cell-based. The following applies: Homo sapiens, 72 h post-treatment, read-out: IC50 (µM) KRAS T84. The procedure: The in-vitro cytotoxic activity of the synthesized compounds on seven human CRC cell lines including KRAS (T84, SW620, LoVo) and BRAF (HT29, NCI-H508, RKO and LS411N) mutated cells were determined by MTT assay as previously described. The IC50 values obtained are summarized in Table 2 in which 5-FU and normal human dermal fibroblasts (NHDF) were used as controls. Meanwhile, a heatmap (Figure 3) was also generated using GraphPad Prism v7.0 (GraphPad Software, La Jolla, CA, USA) to visualize the cytotoxic trends of synthesized compounds graphically.
A panel of KRAS (T84, SW620 and LoVo) and BRAF (HT29, NCI-H508, RKO and LS411N) mutated human CRC cell lines were grown in Dulbecco’s modified Eagle’s medium (DMEM) containing 10% fetal bovine serum (FBS) and 1% penicillin/streptomycin at 37 °C under 5% CO2 while NHDF cells were cultured in DMEM with 5% FBS under the same condition. The culture medium was replenished every two days until the cells reached 80–90% confluency for further usage. All cell lines (T84, ATCC®CCL-248™; SW620, ATCC®CCL-227™; LoVo, ATCC®CCL-229™; HT-29, ATCC®HTB-38; NCI-H508, ATCC®CCL-253™; RKO, ATCC®CRL-2577; LS411N, ATCC®CRL-2159; NHDF, ATCC® PCS-201-010™) were purchased from American Type culture Collections (ATCC, Manassas, VA, USA).
LoVo cells (1.5–5 × 10^3 cells/well) were seeded into a 96 well plate and incubated at 37 °C and 5% CO2 atmosphere for 24 h. On the following day, the cell media were replaced with 100 µL of test compounds at various concentration. The final concentration of DMSO in the well is 0.1%. After 72 h of incubation, culture medium was removed and 100 µL of MTT (thiazoyl blue tertrazolium bromide) solution (0.5 mg/mL in culture media) was added. The resultant plates were then further incubated at 37 °C for 4 h. Upon completion, the MTT solution was removed and the formazan salts formed were dissolved in 100 µL of DMSO. The absorbance was recorded with a microplate reader at 570 nm. The IC50 values of tested compounds were calculated from three independent experiments.
For orientation: Tetrazolium assays rely on reduction of a dye to a coloured formazan, in cell work by metabolically active cells.

Assay [5] has as its system Bad. As to the kind of experiment: Western blot, Bad. The format is cell-based, human. The following applies: 5 µM, LoVo cells, detectable only after 48 h. The procedure:
as §1

In assay [6] the test system is LoVo cells. As to the kind of experiment: Cell cycle analysis (flow cytometry, propidium iodide). The class given is cell-based, human. The following applies: 2.5 and 5 µM, 24 h. The procedure:
LoVo cells (1 × 10^5 cells/well) were seeded into a 6-well plate and incubated at 37 °C and 5% CO2 atmosphere overnight. The seeded cells were then treated with different concentrations of tested compounds for 24 h. Upon completion, cells were trypsinized and washed with PBS followed by fixation with 70% ethanol overnight at 4 °C. Then, the fixed cells were centrifuged at 160× g for 5 min and the resultant cell pellet was washed twice with PBS. Subsequently, 20 μL of DNAse-free RNAse A solution (1 mg/mL) was added to the cell-containing PBS and further incubated for 15 min. Upon completion, 10 μL of propidium iodide staining buffer (10 mg/mL) was added and the resulting mixture was further incubated for 20 min at 4 °C in the dark. Lastly, samples were analyzed with a flow-cytometer (ACEA Biosciences, Inc., San Diego, CA, USA) at the PE channel. The values presented are the means ± SD of three independent experiments.

Assay [7] deals with LoVo cells. The assay can be described thus: Morphological inspection. The format is cell-based, human. The following applies: 0.625-5 µM, 24 h post-treatment. The procedure:
LoVo cells (5 × 10^4 cells/well) were seeded into a 12 well plate and incubated at 37 °C and 5% CO2 atmosphere for 24 h. Next, the culture media were replaced with 1 mL of test compounds at various concentration and further incubated for 24 h. The final concentration of DMSO in the well is 0.1%. The morphological changes of compound-treated cells were photographed using a fluorescent microscope.

For assay [8], the system named is caspase-9. The assay can be described thus: Western blot, cleaved caspase-9. The format is cell-based, human. The following applies: 5 µM, LoVo cells. The procedure:
as §1

As usually defined, the IC50 is the point on the concentration scale where inhibition reaches its midpoint. For `O=C1C(=Cc2ccccc2Br)CSCC1=Cc1ccccc1Br` [Compound 2e, 3,5-Bis(2-bromobenzylidene)tetrahydro-4H-thiopyran-4-one], the “cellular ROS level” value is given as “rapid increment in cellular ROS level” in assay [1] (24 h); “secondary increment of cellular ROS” in assay [1] (48 h and 72 h). In addition, in assay [2], the “cleaved PARP level” value is reported as “increased”. Moreover, the “cleaved caspase-7 level” value in assay [3] is given as “increased”. Besides, the IC50 in assay [4] came to 1.6 µM. In addition, the Bad expression result in assay [5] was “up-regulation”. In assay [6], the cell cycle effect result is recorded as “induce G2/M-phase cell arrest”. Besides, in assay [7], the “morphology of treated LoVo cells” value is “shrink from an epithelial-like shape to a round shape”. The caspase-9 cleavage entry in assay [8] was “activate the cleavage of caspase-9”.

The values are drawn from publication PMC7504466, “In-Vitro and In-Silico Evaluations of Heterocyclic-Containing Diarylpentanoids as Bcl-2 Inhibitors Against LoVo Colorectal Cancer Cells” (Molecules, 2020).
